Experimental data published in patent US10709697B2, “Bis-amines, compositions, and uses related to CXCR4 inhibition” (Emory University, priority 2015, dated 2020).

How the values were obtained:
[1] = system: carrageenan-induced mouse paw edema; assay: In vivo suppression against carrageenan-induced paw edema; settings: 10 mg/kg i.p. daily; paw tissue histology
[2] = system: carrageenan-induced mouse paw edema; assay: as above; settings: for Carageenan: Table 3, mice dosed 10 mg of compound per kg
Experimental: CXCR4 plays a role in the recruitment of inflammatory cells to sites of inflammation. Blocking CXCR4 is a therapeutic strategy in inflammatory diseases. A carrageenan-induced mouse paw edema model as an efficient model to evaluate the in vivo CXCR4 antagonistic activity for CXCR4 inhibitors.
Acute inflammation was induced by subcutaneous injection of 50 μL of λ-carrageenan (1% w/v in saline) into one of the hind paws of the female C57BL/6J mice (Jackson Laboratories); the other hind paw was injected with 50 μL of saline, which was used as a non-inflammation control. The selected compounds were dissolved in 10% DMSO and 90% of 45% (2-hydroxypropyl)-β-cyclodextrin (CD) in PBS. In the treatment group, compounds IIg, IIk, IIm and IIn were administered intraperitoneally (i.p.) at 10 mg/kg daily, while TN14003 was administered at 300 μg/kg, i.p., daily, 30 min following carrageenan challenge. The rationale for using 300 μg/kg for TN14003 was that this concentration was reported to be the minimum concentration needed to achieve the maximum efficacy of this compound in a […] metastasis animal model. See Yoon et al. CXC chemokine receptor-4 antagonist blocks both growth of primary tumor and metastasis of head and neck cancer in xenograft mouse models. Cancer Res., 67 (2007), pp. 7518-7524. Control animals received corresponding i.p. injections of the vehicle. The animals were sacrificed 74 h after carrageenan challenge and 2 h after the last injection of the selected compounds. The final paws were photographed and measured for thickness from the “palm” to the back of the paw with a caliper. These were compared to the volume of carrageenan-untreated contralateral paw to obtain the edema volume; the volume of the contralateral paw was subtracted from the volume of the carrageenan injected paw to obtain the edema volume. The inflammation-suppression percentage was calculated by comparing the drug-treated group to the control group.

[3] = system: CXCR4/CXCL12-mediated chemotaxis and invasion; assay: Matrigel invasion assay; assay type: cell-based; settings: for inhibition at 0.1 µM: single concentration of 100 nM, CXCL12 as chemoattractant, FIG. 2, read-out: inhibitory rate, Matrigel invasion; for Invasion: Table 3, concentration used 100 nM
From the text: To model in vitro metastasis, a Matrigel® invasion assay was used as the functional assay. […] A layer of Matrigel® matrix-coated permeable support (8 μm pore diameter) separates the upper and lower chambers.

[4] = biological target: T1, CXCR4 (Homo sapiens, UniProt P61073); assay: Primary binding affinity screening (competition with biotinylated TN14003)
T1 construct: endogenous in cells; host or cells: MDA-MB-231
T1 sequence (P61073 whole entry): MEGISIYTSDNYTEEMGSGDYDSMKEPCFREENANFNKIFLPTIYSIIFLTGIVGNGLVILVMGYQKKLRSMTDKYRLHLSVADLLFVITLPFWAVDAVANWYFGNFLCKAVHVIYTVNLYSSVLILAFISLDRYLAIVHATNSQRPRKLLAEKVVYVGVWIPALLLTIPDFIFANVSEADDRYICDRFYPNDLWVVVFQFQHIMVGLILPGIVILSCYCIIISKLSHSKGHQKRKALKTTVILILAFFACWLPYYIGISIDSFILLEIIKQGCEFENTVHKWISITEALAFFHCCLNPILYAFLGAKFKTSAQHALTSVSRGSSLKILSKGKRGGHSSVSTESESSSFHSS
Experimental: The compounds were initially screened with a binding affinity assay. […] MDA-MB-231 cells were pre-incubated with compounds at concentrations of 1, 10, 100, and 1000 nM, then incubated with biotinylated TN14003 and streptavidin-conjugated rhodamine to determine the binding efficiency of the new compounds to the CXCL12 binding domain of CXCR4. […] Thus, this screening is a semi-quantitative, first pass measure of the level of activity.
For binding affinity assay, 2×10^4 MDA-MB-231 cells in 300 μL of cell culture medium were seeded in an 8-well slide chamber 2 days before the experiments were conducted. Various concentrations of different compounds (1, 10, 100, or 1000 nM) were added to the separate wells and incubated for 10 min at room temperature, and then the cells were fixed in 4% ice-cold paraformaldehyde. The cells were rehydrated in phosphate-buffered saline (PBS). The slides were subsequently incubated for 30 min at room temperature with 0.05 μg/mL biotinylated TN14003, washed three times with PBS, and incubated in streptavidin-rhodamine (1:150 dilution; Jackson ImmunoResearch Laboratories, West Grove, Pa.) for 30 min at room temperature. Finally, the slides were washed with PBS and mounted in an anti-fade mounting solution (Molecular Probes, Eugene, Oreg.), and the samples were analyzed on a Nikon Eclipse E800 microscope.

[5] = effective concentration = lowest concentration with significant reduction of rhodamine fluorescence, MDA-MB-231 cells, tested at 1, 10, 100, 1000 nM

Structure (SMILES)	inhibition at 0.1 µM [3]	EC [4, 5]	melting point	other results
CN(Cc1ccccn1)Cc1cccc(CN(C)Cc2ccccn2)n1 [IIn, N,N′-(Pyridine-2,6-diylbis(methylene))bis(N-methyl-1-(pyridin-2-yl)methanamine)]	72.6%	10 nM	–	mouse paw inflammation and damage in histological assay [1]: significantly attenuated; inflammation-suppression percentage (paw edema) ([2]; 10 mg/kg i.p. daily, female C57BL/6J mice, 74 h after carrageenan challenge): 50%
CN(Cc1ccc(CN(C)c2ccc(F)cc2)cc1)c1ccc(F)cc1 [Ie, N,N′-(1,4-phenylenebis(methylene))bis(4-fluoro-N-methylaniline)]	66.4%	100 nM	78 to 80 °C	–
c1cc(CN2CCCCC2)ccc1CN1CCCCC1 [Ib, 1,4-Bis(piperidin-1-ylmethyl)benzene]	< 50%	10 nM	84 to 86 °C	–
CN(Cc1ccc(F)cc1)Cc1ccc(CN(C)Cc2ccc(F)cc2)cc1 [Ij, N,N′-(1,4-Phenylenebis(methylene))bis(1-(4-fluorophenyl)-N-methylmethanamine)]	–	>1000 nM	80 to 82 °C	–
CN(Cc1cccc(CN(C)c2ccccc2)n1)c1ccccc1 [IId, N,N′-(Pyridine-2,6-diylbis(methylene))bis(N-methylaniline)]	–	1000 nM	91 to 93 °C	–
c1cc(CN2CCOCC2)ccc1CN1CCOCC1 [Ic, 1,4-Bis(morpholinomethyl)benzene]	–	>1000 nM	113 to 115 °C	–
CN(Cc1ccc(CN(C)c2ccccc2)cc1)c1ccccc1 [Id, N,N′-(1,4-Phenylenebis(methylene))bis(N-methylaniline)]	–	1000 nM	77 to 79 °C	–
c1ccc(NCc2ccc(CNc3ccccn3)cc2)nc1 [WZ811, reference compound]	–	–	–	Carageenan [2]: 40%; Invasion [3]: 90%; EC ([4]; Table 3): 10 nM
Fc1cccc(NCc2cccc(CNc3cccc(F)c3)n2)c1 [2,6-Bis(3-fluoroanilinomethyl)pyridine]	–	–	–	Carageenan [2]: 20.3%; Invasion [3]: 50%; EC ([4]; Table 3): 10 nM
